From patent publication US20260042764A1, “COMPOSITIONS AND METHODS FOR INHIBITION OF KRAS” (TheRas, Inc., priority 2022, published 2026)

Tested on: HCT116 cells (KRAS G13D)
Assay: 3D Cell viability assay in HCT116 cells (Biological Example 6)
Type: cell-based
Conditions: Homo sapiens, HCT-116; HCT116 (KRAS G13D) spheroids, 72 hours
Procedure, shortened: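 Luminescent ATP read-out (CellTiter-Glo 3D) after 72 h compound exposure gives viability of preformed spheroids. Cells were seeded at 1000 per well in low-attachment plates and left 48 h to aggregate before dosing with nine three-fold concentrations at 0.25% DMSO.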

IC50	SMILES
100 to 1000 nM	CCN(c1nc(OC[C@@]23CCCN2C[C@H](F)C3)nc2c(F)c(-c3ccc(F)c4sc(N)c(C#N)c34)c(C(F)(F)F)cc12)[C@H]1CCN(C(=O)OC)C1 (atropisomer, axis not shown) [Compound 541, methyl(3S)-3-[[7-(2-amino-3-cyano-7-fluoro-benzothiophen-4-yl)-8-fluoro-2-[[(2R,8S)-2-fluoro-1,2,3,5,6,7-hexahydropyrrolizin-8-yl]methoxy]-6-(trifluoromethyl)quinazolin-4-yl]-ethyl-amino]pyrrolidine-1-carboxylate]
100 to 1000 nM	CCN(c1nc(OC[C@@]23CCCN2C[C@H](F)C3)nc2c(F)c(-c3ccc(F)c4sc(N)c(C#N)c34)c(C(F)(F)F)cc12)[C@H]1CCS(=O)(=O)C1 (atropisomer, axis not shown) [Compound 492]

Tested on: H1573 cells (KRAS G12A)
Assay: Cell-based pERK HTRF assay in H1573 cells (Biological Example 5)
Conditions: Homo sapiens, NCI-H1573
Procedure, shortened: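 Cells seeded at 2.5×10^4/well in 10% FBS medium overnight, then treated 2 h at 37° C with a 9-point, three-fold compound dilution series (0.25% DMSO final). Lysates were read by HTRF for pERK1/2 (Thr202/Tyr204) after 24 h at 4° C; EC50 came from a four-parameter fit of 665/620 nm ratios.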

SMILES	IC50
Cc1c(C(=O)N(C)C)nn2c1CN(c1nc(OC[C@@]34CCCN3C[C@H](F)C4)nc3c(F)c(-c4ccc(F)c5sc(N)c(C#N)c45)c(C(F)(F)F)cc13)CC2 [Compound 501]	100 to 1000 nM
CCN(c1nc(OC[C@@]23CCCN2C[C@H](F)C3)nc2c(F)c(-c3ccc(F)c4sc(N)c(C#N)c34)c(C(F)(F)F)cc12)[C@@H]1CCN(C(=O)C2CC2)[C@@H]1C (atropisomer, axis not shown) [Compound 524]	≤ 100 nM
CCC(=O)N1CC[C@@H](N(CC)c2nc(OC[C@@]34CCCN3C[C@H](F)C4)nc3c(F)c(-c4ccc(F)c5sc(N)c(C#N)c45)c(C(F)(F)F)cc23)[C@H]1C (atropisomer, axis not shown) [Compound 523]	≤ 100 nM

Now from value to molecule:

IC50	SMILES
≤ 100 nM	CCN(c1nc(OC[C@@]23CCCN2C[C@H](F)C3)nc2c(F)c(-c3ccc(F)c4sc(N)c(C#N)c34)c(C(F)(F)F)cc12)[C@H]1CCN(C(=O)C(C)C)C1 (single isomer, unassigned) [Compound 469]
≤ 100 nM	CCN(c1nc(OC[C@@]23CCCN2C[C@H](F)C3)nc2c(F)c(-c3ccc(F)c4sc(N)c(C#N)c34)c(C(F)(F)F)cc12)[C@H]1CCN(C(=O)OC)C1 (atropisomer, axis not shown) [Compound 541, methyl(3S)-3-[[7-(2-amino-3-cyano-7-fluoro-benzothiophen-4-yl)-8-fluoro-2-[[(2R,8S)-2-fluoro-1,2,3,5,6,7-hexahydropyrrolizin-8-yl]methoxy]-6-(trifluoromethyl)quinazolin-4-yl]-ethyl-amino]pyrrolidine-1-carboxylate]
≤ 100 nM	CCN(c1nc(OC[C@@]23CCCN2C[C@H](F)C3)nc2c(F)c(-c3ccc(F)c4sc(N)c(C#N)c34)c(C(F)(F)F)cc12)[C@H]1CCN(C(=O)N(C)C)C1 (atropisomer, axis not shown) [Compound 540, (3S)-3-[[7-(2-amino-3-cyano-7-fluoro-benzothiophen-4-yl)-8-fluoro-2-[[(2R,8S)-2-fluoro-1,2,3,5,6,7-hexahydropyrrolizin-8-yl]methoxy]-6-(trifluoromethyl)quinazolin-4-yl]-ethyl-amino]-N,N-dimethyl-pyrrolidine-1-carboxamide]
